Laboratory results from patent US20030129629A1, “Methods and compositions for the identification, assessment, prevention, and therapy of human cancers” (Millennium Pharmaceuticals, Inc., priority 2000, published 2003).
Where two headings read alike, the source gives them in different places.

Experiments:
[1] = system: 60 cancer cell lines (NCI 60 cancer cell line series); settings: cited from earlier work
[2] = system: 60 cancer cell lines (NCI 60 cancer cell line series); test: NCI-DTP in vitro cancer screen, sulforhodamine B (SRB) growth inhibition, 48 hour exposure; format: cell-based, human
Summary of the method: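 Potency is given as mean −log{GI50} from dose–response curves, manually binned into Low, Medium or High sensitivity. Sixty NCI-DTP tumour lines were treated 48 h with a duplicate, five-dose, ten-fold dilution series, and growth read by SRB staining of cell mass.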

## COc1cc([C@@H]2c3cc4c(cc3[C@@H](O[C@@H]3O[C@@H]5CO[C@@H](C)O[C@H]5[C@H](O)[C@H]3O)[C@H]3COC(=O)[C@H]23)OCO4)cc(OC)c1O [Etoposide]
[1]; Melanoma SK-MEL-2 CL10005
  −Log (GI50): 4.5
[1]; Melanoma SK-MEL-5 CL10007
  −Log (GI50): 5.0
[1]; Melanoma SK-MEL-28 CL10008
  −Log (GI50): 4.4
[1]; Melanoma UACC-62 CL10020
  −Log (GI50): 4.9
[1]; Melanoma UACC-257 CL10021
  −Log (GI50): 4.2
[1]; NSCLC A549/ATCC CL1004
  −Log (GI50): 5.2
[1]; NSCLC EKVX CL1008
  −Log (GI50): 4.4
[1]; NSCLC HOP-62 CL1026
  −Log (GI50): 5.5
[1]; NSCLC HOP-92 CL1029
  −Log (GI50): 4.8
[1]; NSCLC NCI-H226 CL1013
  −Log (GI50): 5.2
[2]; Breast BT-549 CL5013
  classification of cell line as Low(1), Medium(2), High(3) sensitivity to compound: 2
[2]; Breast HS-578T CL5006
  classification of cell line as Low(1), Medium(2), High(3) sensitivity to compound: 3
[2]; Breast MCF7(I) CL5001
  classification of cell line as Low(1), Medium(2), High(3) sensitivity to compound: 2
[2]; Breast MCF7/ADRr CL5002
  classification of cell line as Low(1), Medium(2), High(3) sensitivity to compound: 1
[2]; Breast MDA-MB-231 CL5005
  classification of cell line as Low(1), Medium(2), High(3) sensitivity to compound: 2
[2]; Breast MDA-MB-435 CL5011
  classification of cell line as Low(1), Medium(2), High(3) sensitivity to compound: 2
[2]; Breast MDA-N CL5012
  classification of cell line as Low(1), Medium(2), High(3) sensitivity to compound: 3
[2]; Breast T-47D CL5014
  classification of cell line as Low(1), Medium(2), High(3) sensitivity to compound: 3
[2]; CNS SF-268 CL12014
  classification of cell line as Low(1), Medium(2), High(3) sensitivity to compound: 2
[2]; CNS SF-295 CL12015
  classification of cell line as Low(1), Medium(2), High(3) sensitivity to compound: 2
[2]; CNS SF-539 CL12016
  classification of cell line as Low(1), Medium(2), High(3) sensitivity to compound: 2
[2]; CNS SNB-19 CL12002
  classification of cell line as Low(1), Medium(2), High(3) sensitivity to compound: 2
[2]; CNS SNB-75(I) CL12005
  classification of cell line as Low(1), Medium(2), High(3) sensitivity to compound: 2
[2]; CNS U251(I) CL12009
  classification of cell line as Low(1), Medium(2), High(3) sensitivity to compound: 2
[2]; Colon COLO-250 CL4010
  classification of cell line as Low(1), Medium(2), High(3) sensitivity to compound: 1
[2]; Colon HCC-2998 CL4002
  classification of cell line as Low(1), Medium(2), High(3) sensitivity to compound: 2
[2]; Colon HCT-15 CL4015
  classification of cell line as Low(1), Medium(2), High(3) sensitivity to compound: 2
[2]; Colon HCT-116 CL4003
  classification of cell line as Low(1), Medium(2), High(3) sensitivity to compound: 2
[2]; Colon HT29(I) CL4001
  classification of cell line as Low(1), Medium(2), High(3) sensitivity to compound: 1
[2]; Colon KM12 CL4017
  classification of cell line as Low(1), Medium(2), High(3) sensitivity to compound: 2
[2]; Colon SW-620 CL4009
  classification of cell line as Low(1), Medium(2), High(3) sensitivity to compound: 2
[2]; Leukemia CCRF-CEM(I) CL7003
  classification of cell line as Low(1), Medium(2), High(3) sensitivity to compound: 2
[2]; Leukemia HL-60(I) CL7008
  classification of cell line as Low(1), Medium(2), High(3) sensitivity to compound: 2
[2]; Leukemia K562(I) CL7005
  classification of cell line as Low(1), Medium(2), High(3) sensitivity to compound: 2
[2]; Leukemia MOLT-4 CL7006
  classification of cell line as Low(1), Medium(2), High(3) sensitivity to compound: 3
[2]; Leukemia RPMI-8226(I) CL7010
  classification of cell line as Low(1), Medium(2), High(3) sensitivity to compound: 2
[2]; Leukemia SR CL7019
  classification of cell line as Low(1), Medium(2), High(3) sensitivity to compound: 3
[2]; Melanoma LOX IMVI CL10001
  classification of cell line as Low(1), Medium(2), High(3) sensitivity to compound: 2
[2]; Melanoma M14 CL10014
  classification of cell line as Low(1), Medium(2), High(3) sensitivity to compound: 3
[2]; Melanoma MALME-3M CL10002
  classification of cell line as Low(1), Medium(2), High(3) sensitivity to compound: 2
[2]; Melanoma SK-MEL-2 CL10005
  classification of cell line as Low(1), Medium(2), High(3) sensitivity to compound: 2
[2]; Melanoma SK-MEL-28 CL10008
  classification of cell line as Low(1), Medium(2), High(3) sensitivity to compound: 1
[2]; NSCLC NCI-H23(I) CL1001
  sensitivity classification Low(1)/Medium(2)/High(3): 2
[2]; NSCLC NCI-H332M CL1017
  sensitivity classification Low(1)/Medium(2)/High(3): 1
[2]; NSCLC NCI-H460 CL1021
  sensitivity classification Low(1)/Medium(2)/High(3): 3
[2]; NSCLC NCI-H522 CL1003
  sensitivity classification Low(1)/Medium(2)/High(3): 2
[2]; Ovarian IGROV1 CL6010
  sensitivity classification Low(1)/Medium(2)/High(3): 1
[2]; Ovarian OVCAR-3 CL6001
  sensitivity classification Low(1)/Medium(2)/High(3): 1
[2]; Ovarian OVCAR-4 CL6002
  sensitivity classification Low(1)/Medium(2)/High(3): 1
[2]; Ovarian OVCAR-5 CL6003
  sensitivity classification Low(1)/Medium(2)/High(3): 1
[2]; Ovarian OVCAR-8 CL6005
  sensitivity classification Low(1)/Medium(2)/High(3): 2
[2]; Ovarian SK-OV-3 CL6011
  sensitivity classification Low(1)/Medium(2)/High(3): 2
[2]; Prostate DU-145 CL11003
  sensitivity classification Low(1)/Medium(2)/High(3): 3
[2]; Prostate PC-3(I) CL11001
  sensitivity classification Low(1)/Medium(2)/High(3): 3
[2]; Renal 786-0 CL9018
  sensitivity classification Low(1)/Medium(2)/High(3): 2
[2]; Renal A498 CL9013
  sensitivity classification Low(1)/Medium(2)/High(3): 2
[2]; Renal ACHN CL9023
  sensitivity classification Low(1)/Medium(2)/High(3): 3
[2]; Renal CAKI-1 CL9015
  sensitivity classification Low(1)/Medium(2)/High(3): 2
[2]; Renal RXF-393 CL9016
  sensitivity classification Low(1)/Medium(2)/High(3): 2
[2]; Renal SN12C CL9008
  sensitivity classification Low(1)/Medium(2)/High(3): 2
[2]; Renal TK10 CL9024
  sensitivity classification Low(1)/Medium(2)/High(3): 2
[2]; Renal UO-31 CL9004
  sensitivity classification Low(1)/Medium(2)/High(3): 1
